Experimental data reported in ChEMBL document CHEMBL3351287, “β-Ionone derived apoptosis inducing endoperoxides; Discovery of potent leads for anticancer agents” (Eur J Med Chem, 2014).
Structures can show the parent of a compound that is named as a salt. The source made the active and inactive calls. The rule behind the calls is not given here.

What was measured:
THP-1 = experiment: Cytotoxicity against human THP1 cells after 48 hrs by SRB assay; assay type: functional, cell-based; settings: THP-1, 48 h
A549 [1] = experiment: Cytotoxicity against human A549 cells after 48 hrs by SRB assay; assay type: functional, cell-based; settings: A549, 48 h
[2] = Cytotoxicity against human PC3 cells after 48 hrs by SRB assay; assay type: functional, cell-based; settings: PC-3, 48 h
MCF7 = experiment: Cytotoxicity against human MCF7 cells after 48 hrs by SRB assay; assay type: functional, cell-based; settings: MCF7, 48 h
A549 [3] = experiment: Induction of apoptosis in human A549 cells assessed as increase in hypodiploid sub-G1 DNA fraction at 1 uM after 24 hrs by propidium iodide-based flow cytometric analysis (reference value: 3 %); assay type: functional
A549 [4] = experiment: Induction of apoptosis in human A549 cells assessed as increase in hypodiploid sub-G1 DNA fraction at 10 uM after 24 hrs by propidium iodide-based flow cytometric analysis (reference value: 3 %); assay type: functional
A549 [5] = experiment: Induction of apoptosis in human A549 cells assessed as loss of membrane potential at 1 uM after 24 hrs using Rhodamine-123 by flow cytometric analysis (Rvb =12.1 %); assay type: functional
A549 [6] = experiment: Induction of apoptosis in human A549 cells assessed as increase in intracellular ROS at 1 uM after 24 hrs using DCFH-DA by spectrofluorimetry relative to control; assay type: functional, cell-based
A549 [7] = experiment: Induction of apoptosis in human A549 cells assessed as caspase 3 activation at 1 uM after 12 hrs […] by colorimetry relative to control; assay type: functional, cell-based
A549 [8] = experiment: Induction of apoptosis in human A549 cells assessed as caspase 9 activation at 1 uM after 12 hrs […] by colorimetry relative to control; assay type: functional, cell-based
CHO [9] = experiment: Cytotoxicity against CHO cells assessed as change in LDH at 1 uM after 48 hrs by LDH colorimetric assay relative to control; assay type: cell-based, Cricetulus griseus; settings: chinese hamster
CHO [10] = experiment: Cytotoxicity against CHO cells assessed as change in LDH at 20 uM after 48 hrs by LDH colorimetric assay relative to control; assay type: cell-based, Cricetulus griseus; settings: chinese hamster
A549 [11] = experiment: Induction of apoptosis in human A549 cells assessed as loss of membrane potential at 2 uM after 24 hrs using Rhodamine-123 by flow cytometric analysis (Rvb =12.1 %); assay type: functional
CHO [12] = experiment: Cytotoxicity against CHO cells assessed as change in LDH at 10 to 100 uM after 48 hrs by LDH colorimetric assay relative to control; assay type: cell-based, Cricetulus griseus; settings: chinese hamster
A549 [13] = experiment: Induction of apoptosis in human A549 cells assessed as increase in hypodiploid sub-G1 DNA fraction at 2 uM after 24 hrs by propidium iodide-based flow cytometric analysis (reference value: 3 %); assay type: functional

SMILES	IC50 (THP-1)	IC50 (A549 [1])	IC50 [2]	IC50 (MCF7)	Activity (A549 [3])	Activity (A549 [4])	Activity (A549 [5])	Activity (A549 [6])	Activity (A549 [7])	Activity (A549 [8])	Activity (CHO [9])	Activity (CHO [10])	Activity (A549 [11])	Activity (CHO [12])	Activity (A549 [13])
O=c1[nH]cc(F)c(=O)[nH]1 [FLUOROURACIL]	0.04 µM														
CC1(C)CCC[C@]2(C)O[C@]3(/C=C/c4cccc5ccccc45)C=CC12OO3 (mixture of isomers)	7.4 µM	0.02 µM	> 100 µM	0.7 µM	66.8%	80.3%	99.8%	Active	Active	Active					
COc1cccc2c1C(=O)c1c(O)c3c(c(O)c1C2=O)C[C@@](O)(C(=O)CO)C[C@@H]3O[C@H]1C[C@H](N)[C@H](O)[C@H](C)O1 [DOXORUBICIN HYDROCHLORIDE]		0.1 µM													
CC1(C)CCC[C@]2(C)O[C@]3(/C=C/c4ccccc4[N+](=O)[O-])C=CC12OO3 (mixture of isomers)	2.8 µM	0.001 µM	> 100 µM	7.7 µM	74.8%	76%	99.7%	Active	Active	Active	108%	135%			
COc1ccc(/C=C/[C@@]23C=CC4(OO2)C(C)(C)CCC[C@]4(C)O3)c(OC)c1OC (mixture of isomers)	25 µM	7 µM	> 100 µM	18 µM	60.4%	74.7%	91.7%	Active	Active	Active					
CC1(C)CCC[C@]2(C)O[C@]3(/C=C/c4ccccc4F)C=CC12OO3 (mixture of isomers)	0.4 µM	0.003 µM	> 100 µM	0.1 µM	60.7%	74.8%	99.8%	Active	Active	Active					
CC1(C)CCC[C@]2(C)O[C@]3(/C=C/c4ccccc4Cl)C=CC12OO3 (mixture of isomers)	3.5 µM	0.9 µM	13 µM	1 µM	16.9%	61%	99.7%	Active	Active	Active					
CC1(C)CCC[C@]2(C)O[C@]3(/C=C/c4ccccc4Br)C=CC12OO3 (mixture of isomers)	0.1 µM	2 µM	> 100 µM	1.3 µM	44.9%	78.2%	99.8%	Active	Active	Active					
CC[C@@]1(O)C(=O)OCc2c1cc1n(c2=O)Cc2cc3ccccc3nc2-1 [CAMPTOTHECIN]													96.1%	126%	49%
COc1ccc(/C=C/[C@@]23C=CC4(OO2)C(C)(C)CCC[C@]4(C)O3)cc1OC (mixture of isomers)	11 µM	12 µM	> 100 µM	10 µM	67.9%	69.8%	99.7%	Active	Active	Active					
CO[C@@]12[C@H](COC(N)=O)C3=C(C(=O)C(C)=C(N)C3=O)N1C[C@@H]1N[C@@H]12 [MITOMYCIN]	0.1 µM	0.04 µM		0.2 µM											
COc1ccccc1/C=C/[C@@]12C=CC3(OO1)C(C)(C)CCC[C@]3(C)O2 (mixture of isomers)	13 µM	6.5 µM	> 100 µM	11 µM	68.2%	83%	99.8%	Active	Active	Active					
CC1(C)CCC[C@]2(C)O[C@]3(/C=C/c4ccc(Cl)c(Cl)c4)C=CC12OO3 (mixture of isomers)	0.2 µM	4.1 µM	21 µM	4.2 µM	48.2%	71.7%	63%	Active	Active	Active					
Cc1ccccc1/C=C/[C@@]12C=CC3(OO1)C(C)(C)CCC[C@]3(C)O2 (mixture of isomers)	4 µM	4.3 µM	20 µM	0.01 µM	67%	69.8%	50.5%	Active	Active	Active					
